Our source for the Ki and residual activity values is ChEMBL document CHEMBL4507288 (2021).

The target of assay [1] is Sigma intracellular receptor 2 (Homo sapiens, UniProt Q5BJF2). As to the kind of experiment: GPCRScan assay: inhibition of Sigma 2. The arrangement: radioligand conc. used [nm] 5.0, parental cells HEKT.
For assay [2], the target named is Alpha-2A adrenergic receptor (Homo sapiens, UniProt P08913). The assay is described as follows: GPCRScan assay: inhibition of Alpha2A. The arrangement: radioligand conc. used [nm] 1.0 – 3.0, parental cells stable MDCK.
Assay [3] addresses Mitogen-activated protein kinase kinase kinase 4 (Homo sapiens) (UniProt Q9Y6R4). As to conditions: Compound concentration 1000.0 nM.
The target in assay [4] is Serine/threonine-protein kinase ULK1 (Homo sapiens) (UniProt O75385). As to conditions: Compound concentration 1000.0 nM.
The target of assay [5] is Tyrosine-protein kinase ABL1 (Homo sapiens) (UniProt P00519). As to conditions: Compound concentration 1000.0 nM.
In assay [6] the target is SRSF protein kinase 2 (Homo sapiens) (UniProt P78362). As to conditions: Compound concentration 1000.0 nM.
In assay [7] the target is Activin receptor type-1 (Homo sapiens) (UniProt Q04771). As to conditions: Compound concentration 1000.0 nM.
Assay [8] deals with Serine/threonine-protein kinase D3 (Homo sapiens) (UniProt O94806). Conditions: Compound concentration 1000.0 nM.
The test system of assay [9] is Receptor-type tyrosine-protein kinase FLT3 (Homo sapiens), P36888 [UNDEFINED MUTATION]. As to conditions: Compound concentration 1000.0 nM.
Assay [10] has as its target Cyclin-dependent kinase 5 (Homo sapiens) (UniProt Q00535). Conditions: Compound concentration 1000.0 nM.
Assay [11] relates to Hepatocyte growth factor receptor (Homo sapiens), P08581 [M1250T]. Conditions: Compound concentration 1000.0 nM.
For assay [12], the target named is Serine/threonine-protein kinase 32A (Homo sapiens) (UniProt Q8WU08). Conditions: Compound concentration 1000.0 nM.
Assay [13] has as its target Tyrosine-protein kinase Srms (Homo sapiens) (UniProt Q9H3Y6). Conditions: Compound concentration 1000.0 nM.
Assay [14] has as its target Tyrosine-protein kinase ZAP-70 (Homo sapiens) (UniProt P43403). Conditions: Compound concentration 1000.0 nM.
The target of assay [15] is Wee1-like protein kinase 2 (Homo sapiens) (UniProt P0C1S8). Conditions: Compound concentration 1000.0 nM.
For assay [16], the target named is SNF-related serine/threonine-protein kinase (Homo sapiens) (UniProt Q9NRH2). As to conditions: Compound concentration 1000.0 nM.
The target in assay [17] is Tyrosine-protein kinase HCK (Homo sapiens) (UniProt P08631). As to conditions: Compound concentration 1000.0 nM.
Assay [18] deals with Cyclin-dependent kinase 17 (Homo sapiens) (UniProt Q00537). Conditions: Compound concentration 1000.0 nM.
The target of assay [19] is Calcium/calmodulin-dependent protein kinase type II subunit delta (Homo sapiens) (UniProt Q13557). As to conditions: Compound concentration 1000.0 nM.
In assay [20] the target is Dual specificity tyrosine-phosphorylation-regulated kinase 1B (Homo sapiens) (UniProt Q9Y463). Conditions: Compound concentration 1000.0 nM.
Assay [21] deals with Fibroblast growth factor receptor 3 (Homo sapiens) (UniProt P22607). Conditions: Compound concentration 1000.0 nM.
For assay [22], the target named is Serine/threonine-protein kinase Nek11 (Homo sapiens) (UniProt Q8NG66). Conditions: Compound concentration 1000.0 nM.
Assay [23] deals with Calcium/calmodulin-dependent protein kinase type 1B (Homo sapiens) (UniProt Q6P2M8). Conditions: Compound concentration 1000.0 nM.
The target of assay [24] is Phosphatidylinositol 4-phosphate 5-kinase type-1 gamma (Homo sapiens) (UniProt O60331). As to conditions: Compound concentration 1000.0 nM.
Assay [25] has as its target Cyclin-dependent kinase 4 (Homo sapiens) (UniProt P11802). As to conditions: Compound concentration 1000.0 nM.
Assay [26] concerns the target Activin receptor type-1B (Homo sapiens) (UniProt P36896). As to conditions: Compound concentration 1000.0 nM.
Assay [27] concerns the target Glycogen synthase kinase-3 beta (Homo sapiens) (UniProt P49841). As to conditions: Compound concentration 1000.0 nM.
The target in assay [28] is Death-associated protein kinase 3 (Homo sapiens) (UniProt O43293). As to conditions: Compound concentration 1000.0 nM.
Assay [29] concerns the target Dual specificity mitogen-activated protein kinase kinase 6 (Homo sapiens) (UniProt P52564). Conditions: Compound concentration 1000.0 nM.
Assay [30] addresses Serine/threonine-protein kinase TAO2 (Homo sapiens) (UniProt Q9UL54). Conditions: Compound concentration 1000.0 nM.
For assay [31], the target named is Serine/threonine-protein kinase 38 (Homo sapiens) (UniProt Q15208). As to conditions: Compound concentration 1000.0 nM.
Assay [32] addresses Tyrosine-protein kinase Lck (Homo sapiens) (UniProt P06239). As to conditions: Compound concentration 1000.0 nM.
The target in assay [33] is Ephrin type-A receptor 7 (Homo sapiens) (UniProt Q15375). As to conditions: Compound concentration 1000.0 nM.
Assay [34] concerns the target Calcium/calmodulin-dependent protein kinase kinase 1 (Homo sapiens) (UniProt Q8N5S9). As to conditions: Compound concentration 1000.0 nM.
Assay [35] deals with Receptor-type tyrosine-protein kinase FLT3 (Homo sapiens), P36888 [UNDEFINED MUTATION]. Conditions: Compound concentration 1000.0 nM. The source holds these as a separate data set.
Assay [36] concerns the target Serine/threonine-protein kinase 36 (Homo sapiens) (UniProt Q9NRP7). Conditions: Compound concentration 1000.0 nM.
Assay [37] deals with Mitotic checkpoint serine/threonine-protein kinase BUB1 (Homo sapiens) (UniProt O43683). Conditions: Compound concentration 1000.0 nM.
For assay [38], the target named is G protein-coupled receptor kinase 4 (Homo sapiens) (UniProt P32298). As to conditions: Compound concentration 1000.0 nM.
Assay [39] has as its system Epidermal growth factor receptor (Homo sapiens), P00533 [UNDEFINED MUTATION]. Conditions: Compound concentration 1000.0 nM.
For assay [40], the target named is Ribosomal protein S6 kinase alpha-2 (Homo sapiens) (UniProt Q15349). As to conditions: Compound concentration 1000.0 nM.
In assay [41] the target is Mitogen-activated protein kinase kinase kinase kinase 1 (Homo sapiens) (UniProt Q92918). Conditions: Compound concentration 1000.0 nM.
Assay [42] addresses Dual specificity tyrosine-phosphorylation-regulated kinase 2 (Homo sapiens) (UniProt Q92630). As to conditions: Compound concentration 1000.0 nM.
In assay [43] the target is MAP/microtubule affinity-regulating kinase 3 (Homo sapiens) (UniProt P27448). As to conditions: Compound concentration 1000.0 nM.
The target of assay [44] is Receptor tyrosine-protein kinase erbB-4 (Homo sapiens) (UniProt Q15303). Conditions: Compound concentration 1000.0 nM.
Assay [45] addresses Serine/threonine-protein kinase BRSK1 (Homo sapiens) (UniProt Q8TDC3). Conditions: Compound concentration 1000.0 nM.

Molecules are shown by their SMILES.

Receptor-type tyrosine-protein kinase FLT3 (Homo sapiens), P36888 [UNDEFINED MUTATION], sequence (P36888 whole entry, looked up, change not shown): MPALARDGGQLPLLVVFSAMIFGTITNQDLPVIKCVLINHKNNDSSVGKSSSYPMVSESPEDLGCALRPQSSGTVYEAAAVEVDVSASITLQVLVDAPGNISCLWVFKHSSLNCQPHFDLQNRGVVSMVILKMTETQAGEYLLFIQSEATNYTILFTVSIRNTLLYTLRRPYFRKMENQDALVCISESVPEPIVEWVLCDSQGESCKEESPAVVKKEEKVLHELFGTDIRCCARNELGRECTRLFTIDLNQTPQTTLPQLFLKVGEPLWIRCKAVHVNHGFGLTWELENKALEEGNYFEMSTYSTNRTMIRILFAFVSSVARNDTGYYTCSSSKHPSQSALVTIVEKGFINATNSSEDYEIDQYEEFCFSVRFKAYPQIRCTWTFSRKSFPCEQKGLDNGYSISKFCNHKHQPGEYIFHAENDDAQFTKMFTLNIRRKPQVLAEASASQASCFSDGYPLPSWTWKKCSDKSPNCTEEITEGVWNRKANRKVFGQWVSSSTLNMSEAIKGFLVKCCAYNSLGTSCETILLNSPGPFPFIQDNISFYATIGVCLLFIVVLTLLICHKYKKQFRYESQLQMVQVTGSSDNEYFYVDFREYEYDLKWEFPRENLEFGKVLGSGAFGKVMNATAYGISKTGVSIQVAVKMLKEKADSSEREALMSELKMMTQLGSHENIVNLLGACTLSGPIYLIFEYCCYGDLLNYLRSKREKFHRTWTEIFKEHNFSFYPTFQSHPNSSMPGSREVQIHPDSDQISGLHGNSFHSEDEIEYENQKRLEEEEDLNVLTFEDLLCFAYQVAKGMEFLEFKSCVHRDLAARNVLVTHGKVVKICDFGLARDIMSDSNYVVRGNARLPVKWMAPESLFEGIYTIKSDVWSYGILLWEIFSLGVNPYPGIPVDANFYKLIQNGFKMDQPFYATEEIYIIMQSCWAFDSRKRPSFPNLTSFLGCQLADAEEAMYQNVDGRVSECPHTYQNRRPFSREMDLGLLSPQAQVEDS
Tyrosine-protein kinase ABL1 (Homo sapiens), sequence (P00519 whole entry): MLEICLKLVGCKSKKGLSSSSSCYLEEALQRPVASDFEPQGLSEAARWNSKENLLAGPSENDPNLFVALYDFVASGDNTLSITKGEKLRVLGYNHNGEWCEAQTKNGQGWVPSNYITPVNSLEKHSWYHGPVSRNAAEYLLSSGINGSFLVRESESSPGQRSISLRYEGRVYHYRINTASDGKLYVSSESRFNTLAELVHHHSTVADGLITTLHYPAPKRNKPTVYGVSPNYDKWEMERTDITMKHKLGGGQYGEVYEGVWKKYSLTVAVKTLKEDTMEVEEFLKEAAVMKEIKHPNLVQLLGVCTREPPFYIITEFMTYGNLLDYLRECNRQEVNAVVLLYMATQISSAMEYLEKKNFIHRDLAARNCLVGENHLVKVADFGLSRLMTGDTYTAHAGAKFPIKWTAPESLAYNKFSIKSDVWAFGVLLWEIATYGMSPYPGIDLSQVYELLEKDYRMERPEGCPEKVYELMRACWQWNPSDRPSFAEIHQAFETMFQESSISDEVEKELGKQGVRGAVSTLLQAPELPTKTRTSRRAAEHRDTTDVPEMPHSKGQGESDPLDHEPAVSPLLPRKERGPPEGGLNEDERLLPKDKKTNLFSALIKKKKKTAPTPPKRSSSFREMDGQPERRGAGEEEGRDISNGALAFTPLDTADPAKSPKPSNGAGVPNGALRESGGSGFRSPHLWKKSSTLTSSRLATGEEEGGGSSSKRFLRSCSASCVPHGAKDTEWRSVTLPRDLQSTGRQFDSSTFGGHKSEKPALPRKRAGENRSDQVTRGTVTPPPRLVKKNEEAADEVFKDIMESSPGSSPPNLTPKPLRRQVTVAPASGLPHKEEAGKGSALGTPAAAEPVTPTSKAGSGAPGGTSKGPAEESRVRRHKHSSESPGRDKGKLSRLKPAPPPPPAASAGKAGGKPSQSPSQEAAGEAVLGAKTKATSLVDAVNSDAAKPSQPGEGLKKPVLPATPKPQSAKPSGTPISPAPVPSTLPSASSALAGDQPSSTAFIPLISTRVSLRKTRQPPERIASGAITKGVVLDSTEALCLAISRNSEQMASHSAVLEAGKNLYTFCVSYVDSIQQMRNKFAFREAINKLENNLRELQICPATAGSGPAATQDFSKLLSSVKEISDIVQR
Calcium/calmodulin-dependent protein kinase kinase 1 (Homo sapiens), sequence (Q8N5S9 whole entry, looked up): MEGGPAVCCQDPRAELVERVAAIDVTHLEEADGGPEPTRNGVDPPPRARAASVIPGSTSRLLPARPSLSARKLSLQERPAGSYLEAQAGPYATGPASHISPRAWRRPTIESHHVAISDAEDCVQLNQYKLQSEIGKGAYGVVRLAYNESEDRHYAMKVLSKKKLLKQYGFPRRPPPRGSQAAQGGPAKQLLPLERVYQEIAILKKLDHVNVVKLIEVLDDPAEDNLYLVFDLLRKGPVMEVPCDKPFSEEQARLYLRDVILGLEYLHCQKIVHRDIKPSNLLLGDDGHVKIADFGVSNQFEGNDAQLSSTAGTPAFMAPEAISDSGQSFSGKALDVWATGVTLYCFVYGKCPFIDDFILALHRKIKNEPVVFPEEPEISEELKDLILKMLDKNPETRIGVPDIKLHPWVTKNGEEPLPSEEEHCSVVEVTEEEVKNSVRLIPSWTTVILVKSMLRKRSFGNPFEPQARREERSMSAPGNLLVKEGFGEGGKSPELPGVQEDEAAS
Epidermal growth factor receptor (Homo sapiens), P00533 [UNDEFINED MUTATION], sequence (P00533 whole entry, looked up, change not shown): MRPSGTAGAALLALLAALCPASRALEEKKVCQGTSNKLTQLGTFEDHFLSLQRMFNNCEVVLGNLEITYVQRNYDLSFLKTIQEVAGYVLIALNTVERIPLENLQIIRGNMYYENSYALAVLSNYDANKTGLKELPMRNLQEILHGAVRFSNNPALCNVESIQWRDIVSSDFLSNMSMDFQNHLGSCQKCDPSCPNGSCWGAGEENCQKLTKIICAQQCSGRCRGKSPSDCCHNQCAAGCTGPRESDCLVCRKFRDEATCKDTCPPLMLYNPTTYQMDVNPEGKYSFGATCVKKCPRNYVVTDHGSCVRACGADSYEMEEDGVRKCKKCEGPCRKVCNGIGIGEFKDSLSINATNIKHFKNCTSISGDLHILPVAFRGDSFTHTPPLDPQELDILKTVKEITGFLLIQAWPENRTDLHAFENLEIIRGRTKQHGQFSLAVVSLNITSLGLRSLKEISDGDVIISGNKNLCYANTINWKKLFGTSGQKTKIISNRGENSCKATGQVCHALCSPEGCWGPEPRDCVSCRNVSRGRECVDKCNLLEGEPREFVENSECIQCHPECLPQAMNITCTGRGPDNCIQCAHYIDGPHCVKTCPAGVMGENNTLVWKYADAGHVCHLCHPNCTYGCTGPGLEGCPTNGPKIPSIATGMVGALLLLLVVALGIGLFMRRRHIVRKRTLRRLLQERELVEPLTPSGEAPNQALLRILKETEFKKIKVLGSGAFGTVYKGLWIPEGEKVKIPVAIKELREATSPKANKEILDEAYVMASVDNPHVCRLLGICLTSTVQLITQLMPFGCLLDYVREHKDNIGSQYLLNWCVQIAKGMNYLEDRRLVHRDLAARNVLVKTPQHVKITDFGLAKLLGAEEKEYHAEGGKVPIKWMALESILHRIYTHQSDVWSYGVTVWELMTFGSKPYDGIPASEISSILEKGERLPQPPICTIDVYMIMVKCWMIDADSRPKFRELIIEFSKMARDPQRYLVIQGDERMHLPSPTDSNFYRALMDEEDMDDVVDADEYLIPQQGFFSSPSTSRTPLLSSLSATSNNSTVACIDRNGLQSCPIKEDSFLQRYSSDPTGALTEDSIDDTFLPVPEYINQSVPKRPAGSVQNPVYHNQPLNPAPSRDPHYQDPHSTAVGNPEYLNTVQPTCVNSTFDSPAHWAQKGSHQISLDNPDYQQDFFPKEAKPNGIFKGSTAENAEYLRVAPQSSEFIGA
Cyclin-dependent kinase 4 (Homo sapiens), sequence (P11802 whole entry): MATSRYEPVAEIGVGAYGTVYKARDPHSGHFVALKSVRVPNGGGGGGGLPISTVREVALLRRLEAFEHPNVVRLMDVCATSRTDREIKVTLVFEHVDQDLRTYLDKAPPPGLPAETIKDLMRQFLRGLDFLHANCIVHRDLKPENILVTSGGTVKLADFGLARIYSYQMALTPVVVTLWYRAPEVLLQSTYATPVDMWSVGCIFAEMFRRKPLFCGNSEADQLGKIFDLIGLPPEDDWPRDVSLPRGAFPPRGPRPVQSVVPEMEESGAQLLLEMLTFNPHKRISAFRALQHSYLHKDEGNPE
Dual specificity tyrosine-phosphorylation-regulated kinase 2 (Homo sapiens), sequence (Q92630 whole entry): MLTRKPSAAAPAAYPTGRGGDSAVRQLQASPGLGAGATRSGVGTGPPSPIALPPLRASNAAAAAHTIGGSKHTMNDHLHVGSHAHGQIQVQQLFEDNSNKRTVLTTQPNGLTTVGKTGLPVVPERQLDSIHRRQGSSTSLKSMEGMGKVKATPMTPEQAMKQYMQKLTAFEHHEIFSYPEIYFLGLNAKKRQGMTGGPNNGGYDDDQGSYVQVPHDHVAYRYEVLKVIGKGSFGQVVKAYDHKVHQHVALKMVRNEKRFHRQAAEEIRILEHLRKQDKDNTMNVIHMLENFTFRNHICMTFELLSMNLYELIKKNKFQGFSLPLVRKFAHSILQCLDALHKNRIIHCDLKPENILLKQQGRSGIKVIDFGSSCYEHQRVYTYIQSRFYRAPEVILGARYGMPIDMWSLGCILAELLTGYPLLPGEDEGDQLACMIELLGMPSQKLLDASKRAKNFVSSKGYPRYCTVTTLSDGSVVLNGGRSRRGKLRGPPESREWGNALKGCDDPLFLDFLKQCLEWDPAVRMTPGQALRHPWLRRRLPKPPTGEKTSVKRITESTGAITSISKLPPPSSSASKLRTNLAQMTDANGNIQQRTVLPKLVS
Dual specificity mitogen-activated protein kinase kinase 6 (Homo sapiens), sequence (P52564 whole entry): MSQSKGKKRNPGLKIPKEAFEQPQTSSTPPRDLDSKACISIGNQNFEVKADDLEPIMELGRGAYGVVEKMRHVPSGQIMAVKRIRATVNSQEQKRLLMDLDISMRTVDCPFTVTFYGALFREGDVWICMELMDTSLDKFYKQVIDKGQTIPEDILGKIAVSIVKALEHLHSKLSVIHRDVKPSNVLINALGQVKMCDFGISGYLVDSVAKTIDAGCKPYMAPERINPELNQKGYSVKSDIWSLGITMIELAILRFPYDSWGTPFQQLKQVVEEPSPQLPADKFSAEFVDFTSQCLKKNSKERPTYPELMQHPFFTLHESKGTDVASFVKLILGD

The Ki is the equilibrium dissociation constant of an inhibitor or competing ligand from its target. Consider `CC(C)(C)OC(=O)N1CCCC1CNC1CCC(c2cc(F)ccc2F)(S(=O)(=O)c2ccc(Cl)cc2)CC1` (stereo not given) [GSI-NC], for which the results for the inhibitory constant (Ki) in assay [1] and in [2] were 959 nM and 237 nM, respectively.
Turning to `O=S(=O)(NC1CCC(c2cc(F)ccc2F)(S(=O)(=O)c2ccc(Cl)cc2)CC1)C(F)(F)F` (stereo not given) [MRK-560], the residual activity in [3] was 99%; in [4] it was 84%; in [5], 87%; in assay [6], 65%; in assay [7] it was 92%; in assay [8], 100%. Moreover, the residual activity was 100% in assay [9]; 100% in assay [10]; 84% in [11]; 97% in assay [12]; 100% in assay [13]; 100% in assay [14]. Besides, the residual activity in assay [15] was 100%; in assay [16], 100%; in [17] it was 85%; in assay [18], 100%; in assay [19], 100%; in assay [20], 100%. Moreover, the residual activity in assay [21] was 90%; in assay [22], 100%; in assay [23] it was 100%; in [24], 87%; in assay [25], 100%; in assay [26] it was 87%. In addition, the residual activity in [27] is 100%; in [28], 97%; in assay [29], 100%; in assay [30] it was 100%; in assay [31], 100%; in assay [32], 100%. For the same molecule, the residual activity in assay [33] is 100%; in assay [34], 100%; in [35], 97%; in [36] it was 100%; in assay [37] it was 100%; in [38], 100%. Besides, the residual activity was 100% in assay [39]; 100% in [40]; 96% in assay [41]; 100% in [42]; 79% in assay [43]; 94% in assay [44]. The residual activity in assay [45] is 92%.
